Reference: the kinase profiling compilation of Christmann-Franck et al. (2016)

Tests used:
Assay in all cases: KINOMEscan competition binding
Settings in all cases: compound 10.0 µM
[1] = target: CLK3 (human) (UniProt P49761)
[2] = target: RPS6KA2 KD1 (human) (UniProt Q15349)
[3] = target: PDPK1 (human) (UniProt O15530)
[4] = target: GSK3B (human) (UniProt P49841)
[5] = target: JAK2 JH1 catalytic (human) (UniProt O60674)
[6] = target: RPS6KA6 KD1 (human) (UniProt Q9UK32)
[7] = target: MAP3K5 (human) (UniProt Q99683)
[8] = target: CHUK (human) (UniProt O15111)
[9] = target: ALK (human) (UniProt Q9UM73)
[10] = target: IKBKB (human) (UniProt O14920)
[11] = target: CDK14 (human) (UniProt O94921)
[12] = target: PLK2 (human) (UniProt Q9NYY3)
[13] = target: TBK1 (human) (UniProt Q9UHD2)
[14] = target: KDR (human) (UniProt P35968)
KDR (human), sequence (P35968 whole entry, looked up): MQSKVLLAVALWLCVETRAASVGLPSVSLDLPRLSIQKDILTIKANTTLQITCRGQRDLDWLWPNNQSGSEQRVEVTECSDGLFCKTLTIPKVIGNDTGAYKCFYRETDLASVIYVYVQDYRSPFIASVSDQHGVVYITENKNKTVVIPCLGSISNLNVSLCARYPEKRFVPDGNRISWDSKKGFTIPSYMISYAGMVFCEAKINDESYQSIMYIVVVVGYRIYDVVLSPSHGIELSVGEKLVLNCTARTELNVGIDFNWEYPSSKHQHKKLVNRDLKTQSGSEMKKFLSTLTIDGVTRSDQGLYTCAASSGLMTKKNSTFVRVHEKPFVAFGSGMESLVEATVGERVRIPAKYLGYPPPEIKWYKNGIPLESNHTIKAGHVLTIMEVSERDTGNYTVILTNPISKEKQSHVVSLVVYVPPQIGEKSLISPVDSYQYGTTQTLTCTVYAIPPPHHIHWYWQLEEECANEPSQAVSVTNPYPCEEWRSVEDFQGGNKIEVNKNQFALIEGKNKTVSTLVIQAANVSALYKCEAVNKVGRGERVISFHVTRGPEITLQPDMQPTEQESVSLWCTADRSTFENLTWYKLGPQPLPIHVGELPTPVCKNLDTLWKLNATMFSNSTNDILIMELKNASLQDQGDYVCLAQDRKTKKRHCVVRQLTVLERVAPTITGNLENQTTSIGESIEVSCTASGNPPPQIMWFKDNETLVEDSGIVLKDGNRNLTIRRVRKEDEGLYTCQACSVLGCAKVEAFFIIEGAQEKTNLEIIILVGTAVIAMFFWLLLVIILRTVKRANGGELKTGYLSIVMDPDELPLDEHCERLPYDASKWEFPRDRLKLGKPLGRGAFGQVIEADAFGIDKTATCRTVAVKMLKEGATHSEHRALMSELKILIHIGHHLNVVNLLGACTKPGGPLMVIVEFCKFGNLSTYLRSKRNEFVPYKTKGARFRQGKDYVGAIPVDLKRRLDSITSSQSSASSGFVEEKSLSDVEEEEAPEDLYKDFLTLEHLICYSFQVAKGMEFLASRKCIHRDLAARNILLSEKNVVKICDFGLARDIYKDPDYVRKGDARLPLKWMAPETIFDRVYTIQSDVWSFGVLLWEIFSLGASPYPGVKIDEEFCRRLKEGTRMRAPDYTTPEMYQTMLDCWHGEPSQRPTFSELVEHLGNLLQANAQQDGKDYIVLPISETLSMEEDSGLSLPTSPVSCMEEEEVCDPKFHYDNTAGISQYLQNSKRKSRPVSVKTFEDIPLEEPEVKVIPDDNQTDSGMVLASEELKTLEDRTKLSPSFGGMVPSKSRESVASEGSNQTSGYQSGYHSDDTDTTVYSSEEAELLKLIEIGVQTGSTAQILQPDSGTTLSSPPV

[15] = target: CDK9 (human) (UniProt P50750)
[16] = target: AURKA (human) (UniProt O14965)
[17] = target: TNNI3K (human) (UniProt Q59H18)
TNNI3K (human), sequence (Q59H18 whole entry, looked up): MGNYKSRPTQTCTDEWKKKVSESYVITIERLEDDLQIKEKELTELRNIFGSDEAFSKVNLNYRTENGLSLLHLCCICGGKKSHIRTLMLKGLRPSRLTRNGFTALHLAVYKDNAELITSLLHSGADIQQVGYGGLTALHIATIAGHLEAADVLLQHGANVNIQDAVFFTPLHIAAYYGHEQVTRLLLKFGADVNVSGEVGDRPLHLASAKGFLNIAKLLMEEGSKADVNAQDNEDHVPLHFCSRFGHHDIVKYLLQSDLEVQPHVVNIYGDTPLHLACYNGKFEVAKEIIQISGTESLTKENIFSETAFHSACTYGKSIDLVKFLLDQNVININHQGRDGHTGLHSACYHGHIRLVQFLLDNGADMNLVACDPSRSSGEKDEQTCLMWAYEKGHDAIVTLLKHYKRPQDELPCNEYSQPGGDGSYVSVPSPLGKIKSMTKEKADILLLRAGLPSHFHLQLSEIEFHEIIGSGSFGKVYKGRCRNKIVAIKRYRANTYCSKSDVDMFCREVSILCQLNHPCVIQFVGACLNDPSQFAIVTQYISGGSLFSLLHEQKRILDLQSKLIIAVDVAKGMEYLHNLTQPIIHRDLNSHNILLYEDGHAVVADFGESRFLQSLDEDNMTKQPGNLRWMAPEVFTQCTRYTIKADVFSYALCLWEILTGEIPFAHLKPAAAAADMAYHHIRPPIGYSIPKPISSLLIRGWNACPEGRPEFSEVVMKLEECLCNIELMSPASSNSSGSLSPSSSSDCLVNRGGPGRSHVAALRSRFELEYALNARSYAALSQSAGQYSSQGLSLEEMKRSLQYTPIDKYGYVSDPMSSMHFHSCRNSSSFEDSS

[18] = target: STK36 (human) (UniProt Q9NRP7)
[19] = target: RIOK1 (human) (UniProt Q9BRS2)
[20] = target: STK25 (human) (UniProt O00506)
[21] = target: EGFR (human) (UniProt P00533)
EGFR (human), sequence (P00533 whole entry, looked up): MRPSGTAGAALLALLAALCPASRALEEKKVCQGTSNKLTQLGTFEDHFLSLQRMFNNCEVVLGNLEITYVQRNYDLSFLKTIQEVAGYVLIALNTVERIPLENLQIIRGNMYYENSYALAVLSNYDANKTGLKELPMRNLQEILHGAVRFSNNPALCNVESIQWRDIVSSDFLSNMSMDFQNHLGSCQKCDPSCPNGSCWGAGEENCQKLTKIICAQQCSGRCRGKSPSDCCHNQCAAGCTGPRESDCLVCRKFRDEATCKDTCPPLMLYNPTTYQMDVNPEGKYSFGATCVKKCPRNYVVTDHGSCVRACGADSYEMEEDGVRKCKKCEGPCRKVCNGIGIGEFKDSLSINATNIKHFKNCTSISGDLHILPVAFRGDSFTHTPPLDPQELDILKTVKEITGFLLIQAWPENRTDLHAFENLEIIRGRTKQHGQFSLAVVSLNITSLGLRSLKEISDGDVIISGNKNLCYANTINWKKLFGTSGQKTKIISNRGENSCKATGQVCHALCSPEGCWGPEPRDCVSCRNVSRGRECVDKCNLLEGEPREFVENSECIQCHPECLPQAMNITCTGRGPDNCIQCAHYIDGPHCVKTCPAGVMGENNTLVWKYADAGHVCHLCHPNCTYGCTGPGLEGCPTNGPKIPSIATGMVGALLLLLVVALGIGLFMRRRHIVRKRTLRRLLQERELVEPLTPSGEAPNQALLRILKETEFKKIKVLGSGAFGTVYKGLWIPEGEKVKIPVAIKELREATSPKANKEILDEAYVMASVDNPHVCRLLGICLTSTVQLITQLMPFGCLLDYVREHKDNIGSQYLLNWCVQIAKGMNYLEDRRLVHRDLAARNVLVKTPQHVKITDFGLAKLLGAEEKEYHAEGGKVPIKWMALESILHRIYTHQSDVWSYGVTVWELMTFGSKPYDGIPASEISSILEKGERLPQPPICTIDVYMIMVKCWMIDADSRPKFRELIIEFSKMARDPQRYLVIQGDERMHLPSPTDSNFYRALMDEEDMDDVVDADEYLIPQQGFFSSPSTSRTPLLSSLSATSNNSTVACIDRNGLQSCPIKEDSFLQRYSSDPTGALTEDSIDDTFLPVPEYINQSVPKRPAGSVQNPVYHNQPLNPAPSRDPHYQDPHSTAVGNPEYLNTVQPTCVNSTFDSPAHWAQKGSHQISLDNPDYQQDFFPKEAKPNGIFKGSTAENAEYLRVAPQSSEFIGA

[22] = target: PIK3C2B (human) (UniProt O00750)
[23] = target: LIMK2 (human) (UniProt P53671)
[24] = target: ROS1 (human) (UniProt P08922)
[25] = target: STK17A (human) (UniProt Q9UEE5)
[26] = target: RIPK1 (human) (UniProt Q13546)
[27] = target: STK24 (human) (UniProt Q9Y6E0)
STK24 (human), sequence (Q9Y6E0 whole entry, looked up): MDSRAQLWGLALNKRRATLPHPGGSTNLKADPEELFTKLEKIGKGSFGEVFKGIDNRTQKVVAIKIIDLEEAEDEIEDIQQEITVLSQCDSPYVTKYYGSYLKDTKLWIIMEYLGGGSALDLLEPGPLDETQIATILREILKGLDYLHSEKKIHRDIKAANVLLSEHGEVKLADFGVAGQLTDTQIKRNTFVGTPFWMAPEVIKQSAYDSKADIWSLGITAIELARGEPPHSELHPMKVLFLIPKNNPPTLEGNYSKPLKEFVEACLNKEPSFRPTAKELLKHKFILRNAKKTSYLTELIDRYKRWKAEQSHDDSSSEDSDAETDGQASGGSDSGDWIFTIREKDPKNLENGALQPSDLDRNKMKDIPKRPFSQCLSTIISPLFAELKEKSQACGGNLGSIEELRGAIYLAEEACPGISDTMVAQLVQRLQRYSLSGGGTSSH

[28] = target: NIM1 (human) (UniProt Q8IY84)
[29] = target: FLT4 (human) (UniProt P35916)
[30] = target: MARK3 (human) (UniProt P27448)
[31] = target: STK11 (human) (UniProt Q15831)
[32] = target: CSF1R (human) (UniProt P07333)
[33] = target: STK38 (human) (UniProt Q15208)
[34] = target: EPHA2 (human) (UniProt P29317)
[35] = target: LTK (human) (UniProt P29376)
[36] = target: MLTK (human) (UniProt Q9NYL2)

JAK2 JH1 catalytic (human), sequence (O60674 whole entry, looked up): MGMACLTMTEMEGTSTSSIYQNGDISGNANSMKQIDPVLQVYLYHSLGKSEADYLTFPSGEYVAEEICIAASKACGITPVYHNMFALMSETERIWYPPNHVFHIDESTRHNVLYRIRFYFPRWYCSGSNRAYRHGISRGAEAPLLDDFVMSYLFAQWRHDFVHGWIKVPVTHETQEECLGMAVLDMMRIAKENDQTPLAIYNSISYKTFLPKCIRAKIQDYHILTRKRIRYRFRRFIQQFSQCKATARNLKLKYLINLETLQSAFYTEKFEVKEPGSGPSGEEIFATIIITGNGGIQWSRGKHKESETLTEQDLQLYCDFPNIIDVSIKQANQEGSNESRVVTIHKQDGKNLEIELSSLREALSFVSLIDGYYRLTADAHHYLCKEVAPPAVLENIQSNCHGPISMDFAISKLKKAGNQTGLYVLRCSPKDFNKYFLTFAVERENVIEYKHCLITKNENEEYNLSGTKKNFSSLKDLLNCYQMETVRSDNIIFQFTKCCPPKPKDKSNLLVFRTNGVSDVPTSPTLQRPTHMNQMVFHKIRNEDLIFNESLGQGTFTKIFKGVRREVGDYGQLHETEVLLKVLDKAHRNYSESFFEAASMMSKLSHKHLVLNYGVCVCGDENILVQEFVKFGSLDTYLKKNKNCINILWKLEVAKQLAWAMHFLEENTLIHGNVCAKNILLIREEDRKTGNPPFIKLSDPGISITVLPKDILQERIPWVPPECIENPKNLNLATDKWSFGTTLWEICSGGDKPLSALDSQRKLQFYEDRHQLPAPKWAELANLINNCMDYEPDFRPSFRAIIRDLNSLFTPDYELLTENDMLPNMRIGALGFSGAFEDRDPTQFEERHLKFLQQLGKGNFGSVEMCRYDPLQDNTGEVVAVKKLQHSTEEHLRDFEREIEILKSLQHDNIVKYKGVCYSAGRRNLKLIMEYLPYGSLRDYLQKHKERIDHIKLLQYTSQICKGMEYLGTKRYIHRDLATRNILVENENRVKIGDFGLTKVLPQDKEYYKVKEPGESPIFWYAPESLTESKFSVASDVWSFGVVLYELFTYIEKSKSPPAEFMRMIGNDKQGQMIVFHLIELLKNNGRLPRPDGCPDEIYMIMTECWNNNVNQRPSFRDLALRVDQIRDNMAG

kinase still bound, per cent of control [1] [%]	kinase still bound, per cent of control [2] [%]	kinase still bound, per cent of control [3] [%]	kinase still bound, per cent of control [4] [%]	kinase still bound, per cent of control [5] [%]	kinase still bound, per cent of control [6] [%]	kinase still bound, per cent of control [7] [%]	kinase still bound, per cent of control [8] [%]	kinase still bound, per cent of control [9] [%]	kinase still bound, per cent of control [10] [%]	kinase still bound, per cent of control [11] [%]	kinase still bound, per cent of control [14] [%]	kinase still bound, per cent of control [15] [%]	kinase still bound, per cent of control [16] [%]	kinase still bound, per cent of control [17] [%]	kinase still bound, per cent of control [18] [%]	kinase still bound, per cent of control [19] [%]	kinase still bound, per cent of control [20] [%]	kinase still bound, per cent of control [21] [%]	kinase still bound, per cent of control [22] [%]	further results	Compound
100	100	100	100	100	100	100	100	100	100	100	100	100	100	29	100	100	100	100	100	kinase still bound, per cent of control [12]: 100%; kinase still bound, per cent of control [13]: 100%; kinase still bound, per cent of control [23]: 100%; kinase still bound, per cent of control [24]: 100%; kinase still bound, per cent of control [25]: 100%; kinase still bound, per cent of control [26]: 100%; kinase still bound, per cent of control [27]: 100%; kinase still bound, per cent of control [28]: 100%; kinase still bound, per cent of control [29]: 100%; kinase still bound, per cent of control [30]: 100%; kinase still bound, per cent of control [31]: 100%; kinase still bound, per cent of control [32]: 0.2%; kinase still bound, per cent of control [33]: 100%; kinase still bound, per cent of control [34]: 1.6%; kinase still bound, per cent of control [35]: 100%; kinase still bound, per cent of control [36]: 7.8%	Cc1cn(-c2cc(C(=O)Nc3ccc(C)c(NC(=O)c4ccno4)c3)cc(C(F)(F)F)c2)cn1
100	100	100	100	100	100	100	100	29	100	100	100	100	100	100	100	100	100	100	100	kinase still bound, per cent of control [12]: 100%; kinase still bound, per cent of control [13]: 100%; kinase still bound, per cent of control [23]: 100%; kinase still bound, per cent of control [24]: 15%; kinase still bound, per cent of control [25]: 100%; kinase still bound, per cent of control [26]: 100%; kinase still bound, per cent of control [27]: 100%; kinase still bound, per cent of control [28]: 100%; kinase still bound, per cent of control [29]: 100%; kinase still bound, per cent of control [30]: 100%; kinase still bound, per cent of control [31]: 100%; kinase still bound, per cent of control [32]: 100%; kinase still bound, per cent of control [33]: 100%; kinase still bound, per cent of control [34]: 100%; kinase still bound, per cent of control [35]: 100%; kinase still bound, per cent of control [36]: 100%	CCOc1cc(N2CCC(O)CC2)ccc1Nc1ncc2c(n1)N(C)c1ccccc1C(=O)N2C
8.3	100	100	100	100	100	100	100	4.5	100	100	100	100	100	100	100	100	100	0.55	100	kinase still bound, per cent of control [23]: 100%; kinase still bound, per cent of control [24]: 3.2%; kinase still bound, per cent of control [25]: 100%; kinase still bound, per cent of control [26]: 100%; kinase still bound, per cent of control [27]: 100%; kinase still bound, per cent of control [29]: 100%; kinase still bound, per cent of control [30]: 100%; kinase still bound, per cent of control [31]: 100%; kinase still bound, per cent of control [32]: 100%; kinase still bound, per cent of control [34]: 100%; kinase still bound, per cent of control [35]: 0.6%; kinase still bound, per cent of control [36]: 100%	COc1cc(N2CCC(C(N)=O)CC2)ccc1Nc1nc(N)c(Cl)c(Nc2ccccc2S(=O)(=O)C(C)C)n1
